Measured values as given in ChEMBL document CHEMBL4270561, “Biological activity of doubly modified salinomycin analogs - Evaluation in vitro and ex vivo” (Eur J Med Chem, 2018).

Legend:
[1] = Selectivity index, ratio of IC50 for human MCF10A cells to IC50 for human LoVo cells; type: toxicity; conditions: MCF10A cells versus LoVo cells, read-out: Ratio IC50
MCF7 = test: Antiproliferative activity against human MCF7 cells after 72 hrs by SRB assay; type: functional, cell-based; conditions: MCF7, 72 h
[2] = Resistance index, ratio of IC50 for human LoVo/DX cells to IC50 for human LoVo cells; type: functional
[3] = Antiproliferative activity against human LoVo/DX cells after 72 hrs by SRB assay; type: functional, cell-based
JIMT-1 = test: Antiproliferative activity against human JIMT1 cells after 72 hrs by SRB assay; type: functional, cell-based; conditions: JIMT-1, 72 h
[4] = Selectivity index, ratio of IC50 for human MCF10A cells to IC50 for human ALL5 cells; type: toxicity; conditions: MCF10A cells versus ALL5 cells, read-out: Ratio IC50
SK-BR-3 = test: Antiproliferative activity against human SK-BR-3 cells after 72 hrs by SRB assay; type: functional, cell-based; conditions: SK-BR-3, 72 h
[5] = Selectivity index, ratio of IC50 for human MCF10A cells to IC50 for human MCF7 cells; type: toxicity; conditions: MCF10A cells versus MCF7 cells, read-out: Ratio IC50
MCF-10A [6] = test: Antiproliferative activity against human MCF10A cells after 72 hrs by SRB assay; type: cell-based
[7] = Selectivity index, ratio of IC50 for human MCF10A cells to IC50 for human SK-BR-3 cells; type: toxicity; conditions: MCF10A cells versus SK-BR-3 cells, read-out: Ratio IC50
[8] = Selectivity index, ratio of IC50 for human MCF10A cells to IC50 for human JIMT1 cells; type: toxicity; conditions: MCF10A cells versus JIMT1 cells, read-out: Ratio IC50
[9] = Antiproliferative activity against human ALL5 cells after 120 hrs by MTT assay; type: functional, cell-based; conditions: ALL5, 120 h
[10] = Selectivity index, ratio of IC50 for human MCF10A cells to IC50 for human LoVo/DX cells; type: toxicity; conditions: MCF10A cells versus LoVo/DX cells, read-out: Ratio IC50
LoVo = test: Antiproliferative activity against human LoVo cells after 72 hrs by SRB assay; type: functional, cell-based
MCF-10A [11] = test: Antiproliferative activity against human MCF10A cells at 100 ug/ml after 72 hrs by SRB assay relative to control; type: cell-based
[12] = Cell cycle arrest in human ALL5 cells assessed as accumulation at G2/M-phase at 5 times antiproliferative IC50 after 48 hrs by propidium iodide staining based flow cytometry (reference value: 13.2%); type: functional
[13] = Cell cycle arrest in human ALL5 cells assessed as accumulation at G0/G1 phase at 5 times antiproliferative IC50 after 48 hrs by propidium iodide staining based flow cytometry (reference value: 69.6%); type: functional
[14] = Cell cycle arrest in human ALL5 cells assessed as accumulation at G0/G1 phase at 5 times antiproliferative IC50 after 24 hrs by propidium iodide staining based flow cytometry (reference value: 79.7%); type: functional
[15] = Cell cycle arrest in human ALL5 cells assessed as accumulation at sub-G1 phase at 5 times antiproliferative IC50 after 24 hrs by propidium iodide staining based flow cytometry (reference value: 6.07%); type: functional
[16] = Cell cycle arrest in human ALL5 cells assessed as accumulation at sub-G1 phase at 5 times antiproliferative IC50 after 48 hrs by propidium iodide staining based flow cytometry (reference value: 7.8%); type: functional
[17] = Cell cycle arrest in human ALL5 cells assessed as accumulation at G0/G1 phase at 5 times antiproliferative IC50 after 96 hrs by propidium iodide staining based flow cytometry (reference value: 69.8%); type: functional
[18] = Cell cycle arrest in human ALL5 cells assessed as accumulation at sub-G1 phase at 5 times antiproliferative IC50 after 96 hrs by propidium iodide staining based flow cytometry (reference value: 12%); type: functional
[19] = Cell cycle arrest in human ALL5 cells assessed as accumulation at S-phase at 5 times antiproliferative IC50 after 24 hrs by propidium iodide staining based flow cytometry (reference value: 6.76%); type: functional
[20] = Cell cycle arrest in human ALL5 cells assessed as accumulation at G2/M-phase at 5 times antiproliferative IC50 after 24 hrs by propidium iodide staining based flow cytometry (reference value: 7.98%); type: functional
[21] = Cell cycle arrest in human ALL5 cells assessed as accumulation at S-phase at 5 times antiproliferative IC50 after 48 hrs by propidium iodide staining based flow cytometry (reference value: 9.82%); type: functional
[22] = Cell cycle arrest in human ALL5 cells assessed as accumulation at S-phase at 5 times antiproliferative IC50 after 96 hrs by propidium iodide staining based flow cytometry (reference value: 7.52%); type: functional
[23] = Cell cycle arrest in human ALL5 cells assessed as accumulation at G2/M-phase at 5 times antiproliferative IC50 after 96 hrs by propidium iodide staining based flow cytometry (reference value: 11.1%); type: functional

SMILES | IC50 (MCF7) [µM] | IC50 (SK-BR-3) [µM] | IC50 (LoVo) [µM] | selectivity ratio [1] | Ratio IC50 [2] | IC50 [3] [µM] | IC50 (JIMT-1) [µM] | selectivity ratio [4] | selectivity ratio [5] | IC50 (MCF-10A [6]) [µM] | selectivity ratio [7] | selectivity ratio [8] | IC50 [9] [µM] | selectivity ratio [10] | Activity [12] [%] | Activity [13] [%] | Activity [14] [%] | Activity [15] [%] | Activity [16] [%] | Activity [17] [%] | further results
CC[C@@H](C(=O)[C@@H](C)[C@@H](O)[C@H](C)[C@@H]1O[C@@H]([C@@H](CC)C(=O)NCCc2ccc(F)cc2)CC[C@@H]1C)[C@H]1O[C@]2(C=C[C@@H](O)[C@]3(CC[C@@](C)([C@H]4CC[C@](O)(CC)[C@H](C)O4)O3)O2)[C@H](C)C[C@@H]1C | 4.1 | 5.6 | 3.8 | 11 | 0.66 | 2.5 | 5.1 | 24 | 9.8 | 40 | 7.1 | 7.8 | 1.7 | 16 | – | – | – | – | – | – | –
CCNC(=O)O[C@@H]1C=C[C@]2(O[C@H]([C@@H](CC)C(=O)[C@@H](C)[C@@H](O)[C@H](C)[C@@H]3O[C@@H]([C@@H](CC)C(=O)OCC(F)(F)F)CC[C@@H]3C)[C@@H](C)C[C@H]2C)O[C@@]12CC[C@@](C)([C@H]1CC[C@](O)(CC)[C@H](C)O1)O2 | 6.1 | 64 | 5.3 | 11 | 1.4 | 7.5 | 11 | 40 | 9.8 | 60 | 0.94 | 5.5 | 1.5 | 8 | 11.8 | 64.1 | 76 | 11 | 19.8 | 56 | Activity [18]: 27.8%; Activity [19]: 4.98%; Activity [20]: 8.15%; Activity [21]: 4.5%; Activity [22]: 5.42%; Activity [23]: 11%
C#CCNC(=O)[C@H](CC)[C@H]1CC[C@H](C)[C@H]([C@@H](C)[C@H](O)[C@H](C)C(=O)[C@H](CC)[C@H]2O[C@]3(C=C[C@@H](OC(C)=O)[C@]4(CC[C@@](C)([C@H]5CC[C@](O)(CC)[C@H](C)O5)O4)O3)[C@H](C)C[C@@H]2C)O1 | 5.8 | 12 | 4.4 | 21 | 0.84 | 3.7 | 17 | 23 | 16 | 92 | 7.7 | 5.4 | 4 | 25 | 5.11 | 58.9 | 77.1 | 14.5 | 34.3 | 20.6 | Activity [18]: 76.3%; Activity [19]: 3.48%; Activity [20]: 5.01%; Activity [21]: 1.75%; Activity [22]: 2.15%; Activity [23]: 1.27%
CCNC(=O)O[C@@H]1C=C[C@]2(O[C@H]([C@@H](CC)C(=O)[C@@H](C)[C@@H](O)[C@H](C)[C@@H]3O[C@@H]([C@@H](CC)C(=O)NCCc4ccc(F)cc4)CC[C@@H]3C)[C@@H](C)C[C@H]2C)O[C@@]12CC[C@@](C)([C@H]1CC[C@](O)(CC)[C@H](C)O1)O2 | 3.8 | 4.3 | 3.5 | 17 | 0.94 | 3.3 | 4.4 | 20 | 15 | 58 | 13 | 13 | 2.9 | 18 | 5.34 | 71.6 | 80.9 | 9.23 | 21.8 | 42.5 | Activity [18]: 53.7%; Activity [19]: 3.8%; Activity [20]: 6.14%; Activity [21]: 1.5%; Activity [22]: 2.28%; Activity [23]: 1.82%
C#CCOC(=O)[C@H](CC)[C@H]1CC[C@H](C)[C@H]([C@@H](C)[C@H](O)[C@H](C)C(=O)[C@H](CC)[C@H]2O[C@]3(C=C[C@@H](O)[C@]4(CC[C@@](C)([C@H]5CC[C@](O)(CC)[C@H](C)O5)O4)O3)[C@H](C)C[C@@H]2C)O1 | 4.3 | 8.5 | 3.9 | 14 | 0.67 | 2.6 | 6.2 | 16 | 13 | 54 | 6.4 | 8.7 | 3.3 | 21 | 5.35 | 51.7 | 71.3 | 16.2 | 39.8 | 42.8 | Activity [18]: 49.8%; Activity [19]: 4.34%; Activity [20]: 8.24%; Activity [21]: 3.58%; Activity [22]: 2.95%; Activity [23]: 4.64%

Second part, led by results:

IC50 (MCF7) [µM] | IC50 (SK-BR-3) [µM] | IC50 (LoVo) [µM] | SMILES | selectivity ratio [1] | Ratio IC50 [2] | IC50 [3] [µM] | IC50 (JIMT-1) [µM] | selectivity ratio [4] | selectivity ratio [5] | IC50 (MCF-10A [6]) [µM] | selectivity ratio [7] | selectivity ratio [8] | IC50 [9] [µM] | selectivity ratio [10] | Activity [12] [%] | Activity [13] [%] | Activity [14] [%] | Activity [15] [%] | Activity [16] [%] | Activity [17] [%] | further results
4.4 | 17 | 3.9 | CC[C@@H](C(=O)[C@@H](C)[C@@H](O)[C@H](C)[C@@H]1O[C@@H]([C@@H](CC)C(=O)OCC(F)(F)F)CC[C@@H]1C)[C@H]1O[C@]2(C=C[C@@H](O)[C@]3(CC[C@@](C)([C@H]4CC[C@](O)(CC)[C@H](C)O4)O3)O2)[C@H](C)C[C@@H]1C | 11 | 1 | 3.9 | 4.6 | 36 | 9.8 | 43 | 2.5 | 9.3 | 1.2 | 11 | – | – | – | – | – | – | –
4.9 | 16 | 4.7 | C#CCNC(=O)[C@H](CC)[C@H]1CC[C@H](C)[C@H]([C@@H](C)[C@H](O)[C@H](C)C(=O)[C@H](CC)[C@H]2O[C@]3(C=C[C@@H](OC(=O)OCC)[C@]4(CC[C@@](C)([C@H]5CC[C@](O)(CC)[C@H](C)O5)O4)O3)[C@H](C)C[C@@H]2C)O1 | – | 0.81 | 3.8 | 7.9 | – | – | – | – | – | 17 | – | – | – | – | – | – | – | Activity (MCF-10A [11]): <= 50%
4.7 | 7.7 | 4.2 | C#CCNC(=O)[C@H](CC)[C@H]1CC[C@H](C)[C@H]([C@@H](C)[C@H](O)[C@H](C)C(=O)[C@H](CC)[C@H]2O[C@]3(C=C[C@@H](OC(=O)NCC)[C@]4(CC[C@@](C)([C@H]5CC[C@](O)(CC)[C@H](C)O5)O4)O3)[C@H](C)C[C@@H]2C)O1 | 20 | 0.9 | 3.8 | 5.9 | 22 | 17 | 82 | 11 | 14 | 3.7 | 22 | 6.44 | 65.9 | 77.8 | 12.2 | 26.1 | 25.2 | Activity [18]: 70.8%; Activity [19]: 4.1%; Activity [20]: 6.08%; Activity [21]: 1.8%; Activity [22]: 2.73%; Activity [23]: 1.55%
